Where two headings read alike, the source gives them in different places.
How the values were obtained:
[1] = tested on: recombinant Ebolavirus that encodes green fluorescent protein; experiment: microbe, parasite or virus in culture; type: cell-based; conditions: read-out: IC50 (concentration that results in 50% inhibition of infection)
[2] = tested on: Ebolavirus; conditions: cited from earlier work
[3] = tested on: filoviruses; conditions: cited from earlier work

SMILES: CSc1ccc(C2Nc3ccccc3C(=O)N2c2ccccc2)s1 (centres unmarked) [Compound 17, 2-(5-(Methylthio)thiophen-2-yl)-3-phenyl-2,3-dihydroquinazolin-4(1H)-one]
- IC50 ([1]; Orthoebolavirus, HeLa): 7.4 µM

SMILES: C[C@H]1CCC/C=C/[C@@H]2C[C@H](O)C[C@H]2[C@H](O)/C=C/C(=O)O1 [Brefeldin A]
- effect on Ebolavirus infectivity [2]: loss of infectivity

SMILES: O=C1c2ccccc2NC(c2ccc(-c3cccs3)s2)N1c1ccccc1 (centres unmarked) [Compound 18, 2-([2,2′-Bithiophen]-5-yl)-3-phenyl-2,3-dihydroquinazolin-4(1H)-one]
- IC50 ([1]; Orthoebolavirus, HeLa): 4.7 µM

SMILES: O=C1c2ccccc2NC(c2ccc(-c3ccccn3)s2)N1c1ccccc1 (centres unmarked) [Compound 19, 3-Phenyl-2-(5-(pyridin-2-yl)thiophen-2-yl)-2,3-dihydroquinazolin-4(1H)-one]
- IC50 ([1]; Orthoebolavirus, HeLa): 5.6 µM

SMILES: NC(=O)c1ncn([C@@H]2O[C@H](CO)[C@@H](O)[C@H]2O)n1 [ribavirin]
- efficacy against filoviruses [3]: ineffective

SMILES: Cc1ccc(C2Nc3ccccc3C(=O)N2c2ccccc2)s1 (centres unmarked) [Retro-2^cycl, reference compound]
- IC50 [1]: 42.5 µM

SMILES: O=C1c2ccccc2NC(c2ccc(-c3ccccc3)s2)N1c1ccccc1 (centres unmarked) [Compound 13, 3-Phenyl-2-(5-phenylthiophen-2-yl)-2,3-dihydroquinazolin-4(1H)-one]
- IC50 ([1]; Orthoebolavirus, HeLa): 4.2 µM

SMILES: O=C1c2ccccc2NC(c2ccc(-c3ccco3)s2)N1c1ccccc1 (centres unmarked) [Compound 20, 2-(5-(Furan-2-yl)thiophen-2-yl)-3-phenyl-2,3-dihydroquinazolin-4(1H)-one]
- IC50 ([1]; Orthoebolavirus, HeLa): 5.4 µM

SMILES: Cc1nc(-c2ccc(C3Nc4ccccc4C(=O)N3c3ccccc3)s2)cs1 (centres unmarked) [Compound 21, 2-(5-(2-Methylthiazol-4-yl)thiophen-2-yl)-3-phenyl-2,3-dihydroquinazolin-4(1H)-one]
- IC50 ([1]; Orthoebolavirus, HeLa): 2.3 µM

SMILES: CCc1ccc(C2Nc3ccccc3C(=O)N2c2ccccc2)s1 (centres unmarked) [Compound 7, 2-(5-Ethylthiophen-2-yl)-3-phenyl-2,3-dihydroquinazolin-4(1H)-one]
- IC50 ([1]; Orthoebolavirus, HeLa): 11 µM

SMILES: CC(Cc1ccc(O)c(O)c1)C(C)Cc1ccc(O)c(O)c1 (centres unmarked) [NDGA]
- effect on Ebolavirus infectivity [2]: loss of infectivity
